From patent publication US6534523B1, “Hepatitis C inhibitor tri-peptides” (Boehringer Ingelheim (Canada) Ltd., priority 1998, dated 2003)

Key:
[1] = target: bovine pancreatic α-chymotrypsin (Bos taurus, UniProt P00766); assay: Specificity assay (Example 40), bovine pancreatic α-chymotrypsin; type: biochemical; conditions: read-out: α-Chym. activity in the specificity assay of Example 40
Description: (§1) The specificity of the compounds was determined against a variety of serine proteases: human leukocyte elastase, porcine pancreatic elastase and bovine pancreatic α-chymotrypsin and one cysteine protease: human liver cathepsin B. In all cases a 96-well plate format protocol using a calorimetric p-nitroaniline (pNA) substrate specific for each enzyme was used. Each assay included a 1 h enzyme-inhibitor pre-incubation at 30° C. followed by addition of substrate and hydrolysis to ≈30% conversion as measured on a UV Thermomax® microplate reader. Substrate concentrations were kept as low as possible compared to KM to reduce substrate competition. Compound concentrations varied from 300 to 0.06 μM depending on their potency.
(§2) The final conditions for each assay were as follows:
50 mM Tris-HCl pH 8, 0.5 M Na2SO4, 50 mM NaCl, 0.1 mM EDTA, 3% DMSO, 0.01% Tween-20 with;
[100 μM Succ-AAPF-pNA and 250 pM α-chymotrypsin], [133 μM Succ-AAA-pNA and 8 nM porcine elastase], [133 μM Succ-AAV-pNA and 8 nM leukocyte elastase]; or
(§3) The sequential 2-fold dilutions of the inhibitor solution were performed on a separate plate by the liquid handler using 50 mM Tris-HCl pH 8, 50 mM NaCl, 0.1 mM EDTA, 0.02% Tween-20, 15% DMSO. All other specificity assays were performed in a similar fashion.
(§4) The percentage of inhibition was calculated using the formula:
(§5) [1-((UVinh−UVblank)/(UVctl−UVblank))]×100 […]

[2] = target: T1, human liver cathepsin B (Cat B) (Homo sapiens, UniProt P07858); assay: Specificity assay (Example 40), human liver cathepsin B; type: biochemical
T1 construct: from tissue; host or cells: human liver
Description: as §1, §2
[100 mM NaHPO4 pH 6, 0.1 mM EDTA, 3% DMSO, 1 mM TCEP, 0.01% Tween-20, 30 μM Z-FR-pNA and 5 nM cathepsin B (the stock enzyme was activated in buffer containing 20 mM TCEP before use)].
as §3, §4, §5

[3] = target: T2, full length NS3-NS4A heterodimer protein (His-NS3-NS4AFL) (Hepatitis C virus genotype 1b, UniProt P26663); assay: Full-length NS3-NS4A heterodimer protein assay (Example 38); type: biochemical, HCV genotype 1b
T2 construct: The full length mature NS3 and NS4A heterodimer protein (His-NS3-NS4AFL) was expressed; made in house; host or cells: Sf21 insect cells, recombinant baculovirus
Excerpt: Full-length NS3-NS4A Heterodimer Protein Assay
The NS2-NS5B-3′ non coding region was cloned by RT-PCR into the pCR®3 vector (Invitrogen) using RNA extracted from the serum of an HCV genotype 1b infected individual (provided by Dr. Bernard Willems, Hôpital St-Luc, Montréal, Québec, Canada). The NS3-NS4A DNA region was then subcloned by PCR into the pFastBac™ HTa baculovirus expression vector (Gibco/BRL). The vector sequence includes a region encoding a 28-residue N-terminal sequence which contains a hexahistidine tag. The Bac-to-Bac™ baculovirus expression system (Gibco/BRL) was used to produce the recombinant baculovirus. The full length mature NS3 and NS4A heterodimer protein (His-NS3-NS4AFL) was expressed by infecting 10^6 Sf21 cells/mL with the recombinant baculovirus at a multiplicity of infection of 0.1-0.2 at 27° C. The infected culture was harvested 48 to 64 h later by centrifugation at 4° C. The cell pellet was homogenized in 50 mM NaPO4, pH 7.5, 40% glycerol (w/v), 2 mM β-mercaptoethanol, in presence of a cocktail of protease inhibitors. […] Fluorescence of the N-terminal product was monitored on a Perkin-Elmer LS-50B fluorometer equipped with a 96-well plate reader (excitation wavelength: 325 nm; emission wavelength: 423 nm).
The % inhibition was calculated with the following equation: […]

T2 sequence (P26663 1027-1657): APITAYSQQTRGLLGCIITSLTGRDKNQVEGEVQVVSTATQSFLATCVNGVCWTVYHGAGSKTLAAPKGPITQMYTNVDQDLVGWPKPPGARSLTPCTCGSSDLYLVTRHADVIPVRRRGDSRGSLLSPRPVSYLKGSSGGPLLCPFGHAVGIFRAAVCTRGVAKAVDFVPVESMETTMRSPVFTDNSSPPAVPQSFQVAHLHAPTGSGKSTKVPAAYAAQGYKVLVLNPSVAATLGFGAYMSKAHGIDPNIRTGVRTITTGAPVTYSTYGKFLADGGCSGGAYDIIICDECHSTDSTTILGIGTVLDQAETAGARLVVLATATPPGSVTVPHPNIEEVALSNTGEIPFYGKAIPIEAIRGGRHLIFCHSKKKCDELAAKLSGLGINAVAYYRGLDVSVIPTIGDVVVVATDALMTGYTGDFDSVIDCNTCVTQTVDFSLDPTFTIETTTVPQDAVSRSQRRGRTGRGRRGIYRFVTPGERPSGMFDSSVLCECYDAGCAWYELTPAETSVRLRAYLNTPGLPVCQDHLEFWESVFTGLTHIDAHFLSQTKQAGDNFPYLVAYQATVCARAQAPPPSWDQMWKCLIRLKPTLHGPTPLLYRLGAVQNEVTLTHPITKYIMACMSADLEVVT
T2 sequence (P26663 1658-1711): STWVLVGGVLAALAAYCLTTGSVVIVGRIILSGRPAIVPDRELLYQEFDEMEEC

C=C[C@@H]1C[C@]1(NC(=O)[C@@H]1C[C@@H](Oc2cc(-c3ccccc3)nc3cc(OC)ccc23)CN1C(=O)[C@@H](NC(=O)OC(C)(C)C)C(C)C)C(=O)O [compound 601]
IC50 [1]: > 75 µM | IC50 [2]: > 75 µM | IC50 [3]: 0.03 µM
